Experiments:
Experiment in all cases: cells
[1] = test system: COR-L105; assay type: functional, cell-based, Homo sapiens; conditions: Homo sapiens, COR-L105;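 note: cell growth inhibition determined with a viability assay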
Description: SANGER: Inhibition of human COR-L105 cell growth in a cell viability assay.

[2] = test system: CTB-1; assay type: functional, cell-based; conditions: Homo sapiens
Description: SANGER: Inhibition of human CTB-1 cell growth in a cell viability assay.

[3] = test system: CW-2; assay type: functional, cell-based, Homo sapiens; conditions: Homo sapiens, CW-2;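 note: growth inhibition of CW-2 cells, read out by a cell viability assay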
Description: SANGER: Inhibition of human CW-2 cell growth in a cell viability assay.

[4] = test system: DMS-114; assay type: functional, cell-based, Homo sapiens; conditions: Homo sapiens, DMS-114
[5] = test system: ETK-1; assay type: functional, cell-based, Homo sapiens; conditions: Homo sapiens, ETK-1;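 note: growth inhibition of human ETK-1 cells, read out with a cell viability assay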
Description: SANGER: Inhibition of human ETK-1 cell growth in a cell viability assay.

[6] = test system: EW-18; assay type: functional, cell-based; conditions: Homo sapiens;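 note: growth inhibition of EW-18 cells, read out by a cell viability assay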
Description: SANGER: Inhibition of human EW-18 cell growth in a cell viability assay.

[7] = test system: FaDu; assay type: functional, cell-based, Homo sapiens; conditions: Homo sapiens, FaDu;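 note: cell viability readout of growth inhibition in FaDu cells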
Description: SANGER: Inhibition of human FADU cell growth in a cell viability assay.

[8] = test system: HCC1419; assay type: functional, cell-based, Homo sapiens; conditions: Homo sapiens, HCC1419;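 note: growth inhibition of human HCC1419 cells, read out as cell viability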
Description: SANGER: Inhibition of human HCC1419 cell growth in a cell viability assay.

[9] = test system: HCC1954; assay type: functional, cell-based, Homo sapiens; conditions: Homo sapiens, HCC1954;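 note: growth inhibition of human HCC1954 cells, read out with a cell viability assay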
Description: SANGER: Inhibition of human HCC1954 cell growth in a cell viability assay.

[10] = test system: HCC38; assay type: functional, cell-based, Homo sapiens; conditions: Homo sapiens, HCC38;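 note: cell viability assay on the human HCC38 cell line, with IC50 marking the concentration that inhibits cell growth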
Description: SANGER: Inhibition of human HCC38 cell growth in a cell viability assay.

[11] = test system: Hs-578T; assay type: functional, cell-based, Homo sapiens; conditions: Homo sapiens, Hs-578T
Description: SANGER: Inhibition of human Hs-578-T cell growth in a cell viability assay.

[12] = test system: HuP-T4; assay type: functional, cell-based, Homo sapiens; conditions: Homo sapiens, HuP-T4;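 note: cell viability assay measuring how much HuP-T4 cell growth is inhibited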
Description: SANGER: Inhibition of human HuP-T4 cell growth in a cell viability assay.

[13] = test system: KMOE-2; assay type: functional, cell-based; conditions: Homo sapiens;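 note: growth inhibition of human KMOE-2 cells, read out with a cell viability assay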
Description: SANGER: Inhibition of human KMOE-2 cell growth in a cell viability assay.

[14] = test system: LU-134-A; assay type: functional, cell-based; conditions: Homo sapiens
Description: SANGER: Inhibition of human LU-134-A cell growth in a cell viability assay.

[15] = test system: M14; assay type: functional, cell-based, Homo sapiens; conditions: Homo sapiens, M14;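 note: growth inhibition of M14 cells, read out with a cell viability assay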
Description: SANGER: Inhibition of human M14 cell growth in a cell viability assay.

[16] = test system: MCF7; assay type: functional, cell-based, Homo sapiens; conditions: Homo sapiens, MCF7;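 note: growth inhibition of human MCF7 cells, read out with a cell viability assay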
Description: SANGER: Inhibition of human MCF7 cell growth in a cell viability assay.

[17] = test system: MS-1; assay type: functional, cell-based; conditions: Homo sapiens;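 note: growth inhibition of MS-1 cells, read out by cell viability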
Description: SANGER: Inhibition of human MS-1 cell growth in a cell viability assay.

[18] = test system: NB10; assay type: functional, cell-based, Homo sapiens; conditions: Homo sapiens, NB10;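 note: growth inhibition of NB10 cells, read out by a cell viability assay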
Description: SANGER: Inhibition of human NB10 cell growth in a cell viability assay.

[19] = test system: NB13; assay type: functional, cell-based, Homo sapiens; conditions: Homo sapiens, NB13;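 note: cell viability readout measuring growth inhibition of human NB13 cells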
Description: SANGER: Inhibition of human NB13 cell growth in a cell viability assay.

[20] = test system: NB5; assay type: functional, cell-based, Homo sapiens; conditions: Homo sapiens, NB5;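 note: growth inhibition of NB5 cells, read out as cell viability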
Description: SANGER: Inhibition of human NB5 cell growth in a cell viability assay.

[21] = test system: NB6; assay type: functional, cell-based, Homo sapiens; conditions: Homo sapiens, NB6;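 note: growth inhibition of NB6 cells, read out by a cell viability assay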
Description: SANGER: Inhibition of human NB6 cell growth in a cell viability assay.

[22] = test system: NCI-H1299; assay type: functional, cell-based, Homo sapiens; conditions: Homo sapiens, NCI-H1299;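 note: growth inhibition of human NCI-H1299 cells, read out by a cell viability assay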
Description: SANGER: Inhibition of human NCI-H1299 cell growth in a cell viability assay.

[23] = test system: NCI-H1437; assay type: functional, cell-based, Homo sapiens; conditions: Homo sapiens, NCI-H1437;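 note: growth inhibition of human NCI-H1437 cells, read out by a cell viability assay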
Description: SANGER: Inhibition of human NCI-H1437 cell growth in a cell viability assay.

[24] = test system: NCI-H1581; assay type: functional, cell-based, Homo sapiens; conditions: Homo sapiens, NCI-H1581;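 note: cell growth inhibition read out by a viability assay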
Description: SANGER: Inhibition of human NCI-H1581 cell growth in a cell viability assay.

[25] = test system: NCI-H2347; assay type: functional, cell-based, Homo sapiens; conditions: Homo sapiens, NCI-H2347;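 note: growth inhibition of the cell line, read out with a cell viability assay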
Description: SANGER: Inhibition of human NCI-H2347 cell growth in a cell viability assay.

[26] = test system: NCI-H661; assay type: functional, cell-based, Homo sapiens; conditions: Homo sapiens, NCI-H661;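 note: cell viability assay read-out, IC50 being the concentration that inhibits growth of the cells by half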
Description: SANGER: Inhibition of human NCI-H661 cell growth in a cell viability assay.

[27] = test system: NCI-H727; assay type: functional, cell-based, Homo sapiens; conditions: Homo sapiens, NCI-H727;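 note: growth inhibition of human NCI-H727 cells, read out with a cell viability assay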
Description: SANGER: Inhibition of human NCI-H727 cell growth in a cell viability assay.

[28] = test system: NOS-1; assay type: functional, cell-based, Homo sapiens; conditions: Homo sapiens, NOS-1;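 note: growth inhibition of the human NOS-1 cell line, read out with a cell viability assay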
Description: SANGER: Inhibition of human NOS-1 cell growth in a cell viability assay.

[29] = test system: NUGC-3; assay type: functional, cell-based, Homo sapiens; conditions: Homo sapiens, NUGC-3;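 note: growth inhibition of human NUGC-3 cells, read out with a cell viability assay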
Description: SANGER: Inhibition of human NUGC-3 cell growth in a cell viability assay.

[30] = test system: PANC-08-13; assay type: functional, cell-based, Homo sapiens; conditions: Homo sapiens, PANC-08-13;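 note: cell growth inhibition, measured with a cell viability assay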
Description: SANGER: Inhibition of human PANC-08-13 cell growth in a cell viability assay.

[31] = test system: PC-3; assay type: functional, cell-based, Homo sapiens; conditions: Homo sapiens, PC-3;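 note: cell viability assay measuring growth inhibition of PC-3 cells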
Description: SANGER: Inhibition of human PC-3 cell growth in a cell viability assay.

[32] = test system: RCC10RGB; assay type: functional, cell-based, Homo sapiens; conditions: Homo sapiens, RCC10RGB;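 note: growth inhibition of human RCC10RGB cells, read out by a cell viability assay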
Description: SANGER: Inhibition of human RCC10RGB cell growth in a cell viability assay.

[33] = test system: RD; assay type: functional, cell-based, Homo sapiens; conditions: Homo sapiens, RD
Description: SANGER: Inhibition of human RD cell growth in a cell viability assay.

[34] = test system: RS4-11; assay type: functional, cell-based; conditions: Homo sapiens;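 note: growth inhibition of RS4-11 cells, read out by a cell viability assay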
Description: SANGER: Inhibition of human RS4-11 cell growth in a cell viability assay.

[35] = test system: SBC-5; assay type: functional, cell-based, Homo sapiens; conditions: Homo sapiens, SBC-5;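 note: cell viability assay read-out, IC50 is the concentration that inhibits growth of the cells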
Description: SANGER: Inhibition of human SBC-5 cell growth in a cell viability assay.

[36] = test system: SK-MEL-28; assay type: functional, cell-based; conditions: Homo sapiens;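 note: growth inhibition of human SK-MEL-28 cells, read out with a cell viability assay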
Description: SANGER: Inhibition of human SK-MEL-28 cell growth in a cell viability assay.

[37] = test system: SK-PN-DW; assay type: functional, cell-based; conditions: Homo sapiens;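 note: growth inhibition measured with a viability assay on these cells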
Description: SANGER: Inhibition of human SK-PN-DW cell growth in a cell viability assay.

[38] = test system: SW1710; assay type: functional, cell-based, Homo sapiens; conditions: Homo sapiens, SW1710;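 note: growth inhibition of SW1710 cells, determined with a cell viability assay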
Description: SANGER: Inhibition of human SW1710 cell growth in a cell viability assay.

[39] = test system: SW 954; assay type: functional, cell-based, Homo sapiens; conditions: Homo sapiens, SW 954;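 note: growth inhibition of SW954 human cancer cells, read out as cell viability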
Description: SANGER: Inhibition of human SW954 cell growth in a cell viability assay.

[40] = test system: A204; assay type: functional, cell-based, Homo sapiens; conditions: Homo sapiens, A204;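 note: growth inhibition of human A204 cells, read out with a cell viability assay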
Description: SANGER: Inhibition of human A204 cell growth in a cell viability assay.

[41] = test system: A-427; assay type: functional, cell-based, Homo sapiens; conditions: Homo sapiens, A-427;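 note: growth inhibition of human A-427 cells, read out by a cell viability assay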
Description: SANGER: Inhibition of human A427 cell growth in a cell viability assay.

[42] = test system: ALL-PO; assay type: functional, cell-based; conditions: Homo sapiens;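 note: growth inhibition of ALL-PO cells, read out by a cell viability assay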
Description: SANGER: Inhibition of human ALL-PO cell growth in a cell viability assay.

[43] = test system: BE-13; assay type: functional, cell-based; conditions: Homo sapiens;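 note: growth inhibition of human BE-13 cells, measured with a cell viability assay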
Description: SANGER: Inhibition of human BE-13 cell growth in a cell viability assay.

[44] = test system: CAL-120; assay type: functional, cell-based, Homo sapiens; conditions: Homo sapiens, CAL-120;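 note: cell growth inhibition, read out as cell viability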
Description: SANGER: Inhibition of human CAL-120 cell growth in a cell viability assay.

[45] = test system: CAL-72; assay type: functional, cell-based, Homo sapiens; conditions: Homo sapiens, CAL-72;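 note: cell viability assay measuring inhibition of proliferation in the CAL-72 cell line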
Description: SANGER: Inhibition of human CAL-72 cell growth in a cell viability assay.

[46] = test system: TE-9; assay type: functional, cell-based, Homo sapiens; conditions: Homo sapiens, TE-9;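 note: cell growth inhibition, measured with a cell viability readout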
Description: SANGER: Inhibition of human TE-9 cell growth in a cell viability assay.

[47] = test system: U-266; assay type: functional, cell-based; conditions: Homo sapiens
Description: SANGER: Inhibition of human U-266 cell growth in a cell viability assay.

[48] = test system: UO-31; assay type: functional, cell-based; conditions: Homo sapiens;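 note: cell viability assay measuring inhibition of cell growth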
Description: SANGER: Inhibition of human U031 cell growth in a cell viability assay.

[49] = test system: U-251; assay type: functional, cell-based, Homo sapiens; conditions: Homo sapiens, U-251;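 note: growth inhibition of human U-251 cells, read out through a cell viability assay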
Description: SANGER: Inhibition of human U251 cell growth in a cell viability assay.

[50] = test system: UACC-62; assay type: functional, cell-based, Homo sapiens; conditions: Homo sapiens, UACC-62;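 note: growth inhibition of human UACC-62 cells, read out by a cell viability assay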
Description: SANGER: Inhibition of human UACC-62 cell growth in a cell viability assay.

[51] = test system: no-11; assay type: functional, cell-based, Homo sapiens; conditions: Homo sapiens;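 note: growth inhibition of human NO-11 cells, read out with a cell viability assay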
Description: SANGER: Inhibition of human no-11 cell growth in a cell viability assay.

[52] = test system: CCRF-CEM; assay type: functional, cell-based; conditions: Homo sapiens;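 note: inhibition of CCRF-CEM cell growth, measured by a cell viability assay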
Description: SANGER: Inhibition of human CCRF-CEM cell growth in a cell viability assay.

[53] = test system: CGTH-W-1; assay type: functional, cell-based, Homo sapiens; conditions: Homo sapiens, CGTH-W-1;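 note: growth inhibition of human CGTH-W-1 cells measured by cell viability assay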
Description: SANGER: Inhibition of human CGTH-W-1 cell growth in a cell viability assay.

`Cn1cc(C2=C(c3ccc(Cl)cc3Cl)C(=O)NC2=O)c2ccccc21` [SB-216763] was tested. Which IC50 [1] did it give?
The IC50 was > 10 µM.

What about the IC50 [2] of the same compound?
The IC50 was > 10 µM.

What about the IC50 [3] of the same compound?
The IC50 was > 10 µM.

What about the IC50 [4] of the same compound?
The IC50 was > 10 µM.

And the IC50 [5]?
The IC50 was > 10 µM.

What about the IC50 [6] of the same compound?
Its IC50 is > 10 µM.

And the IC50 [7]?
Its IC50 is > 10 µM.

What about the IC50 [8] of the same compound?
Its IC50 is > 10 µM.

What about the IC50 [9] of the same compound?
The IC50 was > 10 µM.

What about the IC50 [10] of the same compound?
Its IC50 is > 10 µM.

What about the IC50 [11] of the same compound?
Its IC50 is > 10 µM.

What about the IC50 [12] of the same compound?
The IC50 was > 10 µM.

And the IC50 [13]?
The IC50 was > 10 µM.

And the IC50 [14]?
The IC50 was > 10 µM.

And the IC50 [15]?
The IC50 was > 10 µM.

What about the IC50 [16] of the same compound?
Its IC50 is > 10 µM.

And the IC50 [17]?
Its IC50 is > 10 µM.

And the IC50 [18]?
The IC50 was > 10 µM.

What about the IC50 [19] of the same compound?
Its IC50 is > 10 µM.

What about the IC50 [20] of the same compound?
The IC50 was > 10 µM.

What about the IC50 [21] of the same compound?
Its IC50 is > 10 µM.

And the IC50 [22]?
The IC50 was > 10 µM.

What about the IC50 [23] of the same compound?
Its IC50 is > 10 µM.

What about the IC50 [24] of the same compound?
The IC50 was > 10 µM.

And the IC50 [25]?
The IC50 was > 10 µM.

And the IC50 [26]?
Its IC50 is > 10 µM.

What about the IC50 [27] of the same compound?
Its IC50 is > 10 µM.

What about the IC50 [28] of the same compound?
Its IC50 is > 10 µM.

What about the IC50 [29] of the same compound?
Its IC50 is > 10 µM.

And the IC50 [30]?
Its IC50 is > 10 µM.

And the IC50 [31]?
Its IC50 is > 10 µM.

And the IC50 [32]?
The IC50 was > 10 µM.

And the IC50 [33]?
Its IC50 is > 10 µM.

And the IC50 [34]?
The IC50 was 8.24 µM.

And the IC50 [35]?
The IC50 was > 10 µM.

What about the IC50 [36] of the same compound?
Its IC50 is > 10 µM.

And the IC50 [37]?
The IC50 was > 10 µM.

What about the IC50 [38] of the same compound?
The IC50 was > 10 µM.

And the IC50 [39]?
Its IC50 is > 10 µM.

What about the IC50 [40] of the same compound?
Its IC50 is > 10 µM.

And the IC50 [41]?
Its IC50 is > 10 µM.

And the IC50 [42]?
The IC50 was > 10 µM.

What about the IC50 [43] of the same compound?
Its IC50 is > 10 µM.

And the IC50 [44]?
Its IC50 is > 10 µM.

And the IC50 [45]?
Its IC50 is > 10 µM.

And the IC50 [46]?
Its IC50 is > 10 µM.

And the IC50 [47]?
The IC50 was > 10 µM.

What about the IC50 [48] of the same compound?
Its IC50 is > 10 µM.

And the IC50 [49]?
The IC50 was > 10 µM.

What about the IC50 [50] of the same compound?
The IC50 was > 10 µM.

And the IC50 [51]?
The IC50 was > 10 µM.

What about the IC50 [52] of the same compound?
The IC50 was > 10 µM.

What about the IC50 [53] of the same compound?
The IC50 was > 10 µM.

Which IC50 [1] does the source give for `Cn1cncc1[C@@](N)(c1ccc(Cl)cc1)c1ccc2c(c1)c(-c1cccc(Cl)c1)cc(=O)n2C` [TIPIFARNIB] here?
The IC50 was 7.24 µM.

And the IC50 [2]?
The IC50 was 7.81 µM.

What about the IC50 [3] of the same compound?
The IC50 was > 16 µM.

And the IC50 [4]?
The IC50 was > 16 µM.

What about the IC50 [5] of the same compound?
The IC50 was 0.0215 µM.

What about the IC50 [6] of the same compound?
Its IC50 is 0.458 µM.

And the IC50 [7]?
The IC50 was 8.38 µM.

And the IC50 [8]?
The IC50 was 4.65 µM.

And the IC50 [9]?
Its IC50 is 14.3 µM.

And the IC50 [10]?
Its IC50 is 6.1 µM.

And the IC50 [11]?
The IC50 was > 16 µM.

And the IC50 [12]?
The IC50 was 3.03 µM.

And the IC50 [13]?
The IC50 was 5.18 µM.

What about the IC50 [14] of the same compound?
Its IC50 is > 16 µM.

What about the IC50 [15] of the same compound?
The IC50 was > 16 µM.

And the IC50 [16]?
Its IC50 is 0.166 µM.

What about the IC50 [17] of the same compound?
The IC50 was > 16 µM.

And the IC50 [18]?
Its IC50 is 11.7 µM.

And the IC50 [19]?
Its IC50 is 4.62 µM.

What about the IC50 [20] of the same compound?
The IC50 was > 16 µM.

What about the IC50 [21] of the same compound?
The IC50 was > 16 µM.

And the IC50 [22]?
The IC50 was 0.693 µM.

And the IC50 [23]?
Its IC50 is 8.21 µM.

What about the IC50 [24] of the same compound?
Its IC50 is > 16 µM.

What about the IC50 [25] of the same compound?
The IC50 was > 16 µM.

And the IC50 [26]?
The IC50 was 7.5 µM.

What about the IC50 [27] of the same compound?
The IC50 was 0.874 µM.

And the IC50 [28]?
Its IC50 is 2.13 µM.

And the IC50 [29]?
The IC50 was 4.19 µM.

What about the IC50 [30] of the same compound?
The IC50 was > 16 µM.

And the IC50 [31]?
Its IC50 is 11.3 µM.

What about the IC50 [32] of the same compound?
Its IC50 is 8.49 µM.

And the IC50 [33]?
The IC50 was 12 µM.

What about the IC50 [34] of the same compound?
Its IC50 is 1.94 µM.

What about the IC50 [35] of the same compound?
The IC50 was 2.81 µM.

What about the IC50 [36] of the same compound?
Its IC50 is > 16 µM.

What about the IC50 [37] of the same compound?
The IC50 was 15.5 µM.

And the IC50 [38]?
The IC50 was 0.726 µM.

What about the IC50 [39] of the same compound?
Its IC50 is 2.9 µM.

And the IC50 [40]?
The IC50 was 3.58 µM.

What about the IC50 [41] of the same compound?
The IC50 was 0.579 µM.

What about the IC50 [42] of the same compound?
Its IC50 is 0.555 µM.

And the IC50 [43]?
The IC50 was 4.94 µM.

And the IC50 [44]?
The IC50 was > 16 µM.

What about the IC50 [45] of the same compound?
Its IC50 is 4.95 µM.

And the IC50 [46]?
The IC50 was > 16 µM.

What about the IC50 [47] of the same compound?
The IC50 was > 16 µM.

What about the IC50 [48] of the same compound?
The IC50 was 10.7 µM.

What about the IC50 [49] of the same compound?
The IC50 was 7.09 µM.

What about the IC50 [50] of the same compound?
Its IC50 is > 16 µM.

What about the IC50 [51] of the same compound?
The IC50 was 4.01 µM.

And the IC50 [52]?
The IC50 was 1.64 µM.

What about the IC50 [53] of the same compound?
Its IC50 is 5.01 µM.

From ChEMBL document CHEMBL1201861, “Genomics of Drug Sensitity in Cancer screening data, Wellcome Trust Sanger Institute”
